Experiments:
[1] = DPPH free radical scavenging assay
Procedure: The antioxidant property of different tryptamine derivatives were assessed and compared with the known antioxidants for potency. A range of different synthesized compounds and known anti oxidants, quercetin, ascorbic acid and gallic acid were analyzed by the FRAP assay. The FRAP assay is based on the measurement of the ability of the substance to reduce Fe^3+ to Fe^2+, greater the reducing ability greater the anti oxidant property. Antioxidants reduce Fe^3+-TPTZ in to blue colored Fe^2+-TPTZ complex, which results in an increase in the absorbance at 595 nm giving a FRAP value. […] Absorbance changes at different time intervals (FIG. 6) as well as at different concentrations (FIG. 7) at time 6 min in the presence of different compounds at 595 nm were measured. FRAP values at 6 min and 65 min were calculated from different tryptamine derivatives and some known antioxidant (Table 1). […] DPPH assay based on the DPPH free radicals scavenging power of the antioxidant molecules. Higher the scavenging power higher will be the antioxidant property. […] This assay was performed in presence of some known antioxidants such as ascorbic acid, quercetin and gallic acid.
2,2-Diphenyl-1-Picrylhydrazyl (DPPH) is a stable free radical that can accept hydrogen radical or an electron and become a stable diamagnetic molecule. The antioxidants can scavenge the DPPH by donating hydrogen as visualized by discoloration of the DPPH radical from purple to yellow (Pal, C; et al. Free Radic Biol Med, 49(2), 258-267; 2010, Ben Farhat, M.; et al. J. Agric. Food Chem. 57:10349-10356; 2009, Han, J; et al. Wei Sheng Yan Jiu 38:596-598; 2009). The assay system contained 1 mL of compounds under investigation dissolved (in methanol, some compound dissolved in water) at different concentrations in the range 10-100 μM solution and 4 ml of DPPH (0.15 mM) in methanol (80% in water v/v) and mixed well. It was allowed to stand for 30 min at 27° C. away from light. Ascorbic acid at the same concentration was taken as positive control. The absorbance of the solution was measured spectrophotometrically at 517 nm and from the decrease of absorption; the antioxidant activity of different tryptamine derivatives were determined.

[2] = Ferric reducing antioxidant power (FRAP) assay; conditions: for FRAP Value6 min (μM) M ± SD: 6 min; for FRAP Value6 min (μM) M ± SD / FRAP Value65 min (μM) M ± SD: compound at 10 μM relative to ferrous sulfate; for FRAP Value65 min (μM) M ± SD: 65 min
Procedure: The antioxidant property of different tryptamine derivatives were assessed and compared with the known antioxidants for potency. […] The FRAP assay is based on the measurement of the ability of the substance to reduce Fe^3+ to Fe^2+, greater the reducing ability greater the anti oxidant property. Antioxidants reduce Fe^3+-TPTZ in to blue colored Fe^2+-TPTZ complex, which results in an increase in the absorbance at 595 nm giving a FRAP value. […] Absorbance changes at different time intervals (FIG. 6) as well as at different concentrations (FIG. 7) at time 6 min in the presence of different compounds at 595 nm were measured. FRAP values at 6 min and 65 min were calculated from different tryptamine derivatives and some known antioxidant (Table 1). […] DPPH assay based on the DPPH free radicals scavenging power of the antioxidant molecules. Higher the scavenging power higher will be the antioxidant property.
The assay was performed in a 96-well microplate. FRAP reagent was prepared by mixing of 10 ml acetate buffer (200 mM, pH-3.6), 1 ml of 2,4,6-tris(2-pyridyl)-s-triazine (TPTZ) solution (10 mM in 40 mM HCl) and 1 ml of ferric chloride solution (20 mM) in distilled water. For 1 h the mixture was kept in a water bath at 37° C. In 96-well microplates, 25 μL of the compounds under investigation dissolved (in methanol, some compound dissolved in water) at different concentrations in the range 1-25 μM was placed in triplicate and freshly prepared FRAP solution (175 μL) was added to this sample. A micro plate reader monitored the absorbance at 595 nm at different time intervals for up to 150 min. The absorbance of a mixture 175 μL TRAP sol and 25 μL methanol or water was taken which was subtracted from the absorbance of the samples at each time interval to calculate the absorbance change (ΔA). The FRAP value at time interval t (FRAP valuet) was calculated according to the formula: FRAP valuet(M)=(ΔatFl/ΔatFe^2+)×10^−5 Where ΔatFl is the absorbance change after the time interval t (6 and 65 min) relative to the tested flavonoid at the concentration of 10 μM and ΔatFe^2+ is the absorbance change at the same time interval relative to ferrous sulfate at the same concentration (Pal, C; et al. Free Radic Biol Med, 49(2), 258-267, 2010, Firuzi, O; et al. Biochim. Biophys. Acta 1721:174-184; 2005).

[3] = test system: indomethacin-induced gastric mucosal damage; assay: Indomethacin-induced gastric mucosal damage (ulcer index, histology); format: in vivo, Sprague-Dwaley rats; conditions: for gastroprotective effect compared with SEGA (3a): 6.9 mg kg^−1 intraperitoneally, indomethacin-induced gastropathy; for Gastric mucosal damage (ulcer index): rats
Procedure: Sprague-Dwaley rats (180-220 gm) were used for this study. Each group (control or experimental) of animals was maintained at 24±2° C. with 12 hrs lights and dark cycle. The animals were fasted for 24 hrs before the start of experiments. They were provided with water ad libitum to avoid food-induced increased acid secretion and its effect on gastric lesions. Gastric mucosal ulcer was developed by indomethacin as described (Pal, C; et al. Free Radic Biol Med, 49(2), 258-267; 2010, Biswas, K.; et al. J. Biol. Chem. 278:10993-11001; 2003, Bandyopadhyay, U.; et al. Life Sci. 71:2845-2865; 2002). Briefly, all the animals were divided into control, indomethacin and test compound group. Oral administration of indomethacin at a dose of 48 mg kg^−1 b.w was given to the fasted animals to induce gastric ulcer. […] Control group received vehicle only but no indomethacin. After 4 hrs of indomethacin treatment, the animals were sacrificed under proper euthanasia and stomachs were collected. The mucosal injury was scored as ulcer index as follows: 0=no pathology; 1=one pinhead ulcer. The sum of the total scores divided by the number of animals gave the ulcer index. All the in vivo studies were done in accordance with the institute animal ethical committee guidelines. To see the effect of SEGA on diclofenac induced gastric mucosal injury, gastric mucosal damage was developed by the oral administration of diclofenac (75 mg kg^−1) and the rest of the experiment was carried out in a similar way as described for indomethacin. Diclofenac produced pinhead ulcer like indomethacin and the mucosal injury was scored as ulcer index as described above. Ethanol-induced gastric mucosal injury was developed with oral administration of 1 ml of 50% ethanol (Banerjee, R. K. (2002) Life Sci 71, 2845-2865) and after 4 hrs the animals were sacrificed and cold-restrain stress induced mucosal injury was developed by immobilizing the animals at 4° C. for 3.5 hrs (Banerjee, R. K. (2002) Life Sci 71, 2845-2865, (2003) J Biol Chem 278, 10993-11001).
Stomach tissues from the animals of different groups were washed first washed several times with PBS (pH 7.4) and later fixed in 10% buffered formalin for 12 hrs at 25° C. The formalin-fixed tissues were then dehydrated and embedded in paraffin for preparing semi-thin sections (Maity, P.; et al. J. Biol. Chem. 283:14391-14401; 2008). The semi-thin sections were prepared using a microtome and taken over poly-L-lysine coated glass slide for hematoxylene-eosine staining. The stained sections were observed under microscope (Leica DM-2500, Germany) and were documented by high-resolution digital camera.

rats = assay: Toxicity (death) after injection in rats; format: in vivo
[4] = compounds 100 μM, 517 nm (Table 2)
[5] = compound 6.9 mg kg^−1 intraperitoneally before indomethacin 48 mg kg^−1 oral

SMILES	Absorbance change (ΔA) at 30 min [1, 4]	FRAP Value6 min (μM) M ± SD [2]	FRAP Value65 min (μM) M ± SD [2]	also measured
COc1ccc2[nH]cc(CCNC(=O)Cc3c[nH]c4ccccc34)c2c1 [Compound 2i, 2-(1H-indol-3-yl)-N-(2-(5-methoxy-1H-indol-3-yl)ethyl) acetamide]	0.12 ± 0.02	1.94 ± 0.04 µM	2.5 ± 0.34 µM	
O=C(NCCc1c[nH]c2ccccc12)c1cc(O)c(O)c(O)c1 [Compound 3b, N-(2-(1H-indol-3-yl)ethyl)-3,4,5-trihydroxybenzamide]	0.31 ± 0.06	14.32 ± 0.36 µM	19.65 ± 2.1 µM	Absorbance change (ΔA) at 30 min ([1]; concentration 10 μM (Table 3)): 0.16 ± 0.02; Absorbance change (ΔA) at 30 min ([1]; concentration 30 μM (Table 3)): 0.21 ± 0.05; Absorbance change (ΔA) at 30 min ([1]; concentration 50 μM (Table 3)): 0.23 ± 0.04; Absorbance change (ΔA) at 30 min ([1]; concentration 80 μM (Table 3)): 0.28 ± 0.03; Absorbance change (ΔA) at 30 min ([1]; concentration 100 μM (Table 3)): 0.31 ± 0.06; gastroprotective effect compared with SEGA (3a) [3]: lesser gastroprotective effect; Gastric mucosal damage (ulcer index) [3, 5]: 42 ± 2
COc1ccc2[nH]cc(CCNC(=O)/C=C/c3ccc(O)cc3)c2c1 [Compound 2h, (E)-3-(4-hydroxyphenyl)-N-(2-(5-methoxy-1H-indol-3-yl)ethyl)acrylamide]	0.11 ± 0.03	1.87 ± 0.13 µM	2.93 ± 1.43 µM	
O=C(Cc1c[nH]c2ccccc12)NCCc1c[nH]c2ccccc12 [Compound 2f, N-(2-(1H-indol-3-yl)ethyl)-2-(1H-indol-3-yl)acetamide]	0.13 ± 0.03	2.44 ± 0.24 µM	3.33 ± 0.49 µM	
O=c1c(O)c(-c2ccc(O)c(O)c2)oc2cc(O)cc(O)c12 [Quercetin, reference compound]		28.11 ± 1.00 µM	48.55 ± 4.85 µM	
NCCc1c[nH]c2ccc(O)cc12 [Serotonin, 5-hydroxytryptamine, reference compound]		21.61 ± 3.65 µM	35.48 ± 6.55 µM	death of rats after injection (rats; i.p. 25 mg kg^−1): all the rats were found to be dead; death of rats after injection (rats; i.p. 50 mg kg^−1): all the rats were found to be dead; reducing ability (Fe^3+ to Fe^2+) / antioxidant property in words ([2]; compared to other tryptamine derivatives and known antioxidants): very little antioxidant property
O=C1O[C@H]([C@@H](O)CO)C(O)=C1O [Ascorbic acid, reference compound]		15.46 ± 0.07 µM	15.89 ± 2.24 µM	
NCCc1c[nH]c2ccc(OC(=O)c3cc(O)c(O)c(O)c3)cc12 [Compound 4d, 3-(2-aminoethyl)-1H-indol-5-yl 3,4,5-trihydroxybenzoate]	0.38 ± 0.07	24.02 ± 1.98 µM	35.40 ± 3.25 µM	Absorbance change (ΔA) at 30 min ([1]; concentration 10 μM (Table 3)): 0.18 ± 0.01; Absorbance change (ΔA) at 30 min ([1]; concentration 30 μM (Table 3)): 0.27 ± 0.03; Absorbance change (ΔA) at 30 min ([1]; concentration 50 μM (Table 3)): 0.31 ± 0.05; Absorbance change (ΔA) at 30 min ([1]; concentration 80 μM (Table 3)): 0.33 ± 0.05; Absorbance change (ΔA) at 30 min ([1]; concentration 100 μM (Table 3)): 0.38 ± 0.07; gastroprotective effect compared with SEGA (3a) [3]: lesser gastroprotective effect; Gastric mucosal damage (ulcer index) [3, 5]: 41 ± 2.5
O=C(Cc1c[nH]c2ccccc12)NCCc1c[nH]c2ccc(O)cc12 [Compound 2c, N-(2-(5-hydroxy-1H-indol-3-yl)ethyl)-2-(1H-indol-3-yl)acetamide]	0.14 ± 0.04	2.48 ± 0.10 µM	3.57 ± 0.41 µM	
O=C(/C=C/c1ccc(O)cc1)NCCc1c[nH]c2ccccc12 [Compound 2e, (E)-N-(2-(1H-indol-3-yl)ethyl)-3-(4-hydroxyphenyl)acrylamide]	0.11 ± 0.02	2.45 ± 0.19 µM	5.60 ± 1.02 µM	
COc1ccc2c(c1)c(CC(=O)O)c(C)n2C(=O)c1ccc(Cl)cc1 [Indomethacin, reference compound]				Gastric mucosal damage (ulcer index) ([3]; indomethacin 48 mg kg^−1 alone, oral): 61 ± 3
COc1ccc2[nH]cc(CCNC(=O)c3cc(O)c(O)c(O)c3)c2c1 [Compound 3c, 3,4,5-trihydroxy-N-(2-(5-methoxy-1H-indol-3-yl)ethyl)benzamide]	0.35 ± 0.08	15.32 ± 0.46 µM	21.96 ± 2.6 µM	Absorbance change (ΔA) at 30 min ([1]; concentration 10 μM (Table 3)): 0.18 ± 0.02; Absorbance change (ΔA) at 30 min ([1]; concentration 30 μM (Table 3)): 0.24 ± 0.03; Absorbance change (ΔA) at 30 min ([1]; concentration 50 μM (Table 3)): 0.28 ± 0.05; Absorbance change (ΔA) at 30 min ([1]; concentration 80 μM (Table 3)): 0.31 ± 0.07; Absorbance change (ΔA) at 30 min ([1]; concentration 100 μM (Table 3)): 0.35 ± 0.08; gastroprotective effect compared with SEGA (3a) [3]: lesser gastroprotective effect; Gastric mucosal damage (ulcer index) [3, 5]: 39 ± 2
